What all share (format): in vivo
The test system of one test is Helianthus annuus. Kind of test: greenhouse pre-emergence treatment, HELAN. As to conditions: Helianthus annuus, 480 h, 20 DAT, HELAN. Put shortly: (§1)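 Seeds were sown per species in pots of loamy sand with about 3.0% humus, sprayed with the aqueous spray liquor directly after sowing, watered and hooded until rooted, then kept at 10-25° C. or 20-35° C. for 2 to 4 weeks. Damage was scored 0 (none) to 100 (no emergence/complete destruction).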

For a further test, the system named is Bromus sterilis. The test is described as follows: greenhouse pre-emergence treatment, BROST. As to conditions: Bromus sterilis, 480 h, 20 DAT, BROST. Put shortly: as §1
A further test deals with Polygonum aviculare. Kind of test: greenhouse post-emergence treatment, POLAV. As to conditions: Polygonum aviculare, 480 h, 20 DAT. How it is done: (§2) The culture containers used were plastic pots containing loamy sand with approximately 3.0% of humus as substrate. The seeds of the test plants were sown separately for each species.
For the post-emergence treatment, the test plants were grown to a plant height of from 3 to 15 cm, depending on the plant habit, and only then treated with the active compounds which had been suspended or emulsified in water. To this end, the test plants were either sown directly, and grown in the same containers, or they were first grown separately as seedlings and transplanted into the test containers a few days prior to treatment.
(§3) Depending on the species, the plants were kept at 10-25° C. and 20-35° C., respectively.
(§4) The test period extended over 2 to 4 weeks. During this time, the plants were tended and their response to the individual treatments was evaluated.
(§5) Evaluation was carried out using a scale from 0 to 100. 100 means no emergence of the plants, or complete destruction of at least the above-ground parts, and 0 means no damage or normal course of growth. A good herbicidal activity is given at values of at least 70, and very good herbicidal activity is given at values of at least 85.
(§6) The respective stated components A and B, and if appropriate, C were formulated as a 10% by weight strength emulsion concentrate and, with addition of the amount of solvent system, introduced into the spray liquor used for applying the active compound. In the examples, the solvent used was water.
(§7) In the examples below, using the method of S. R. Colby (1967) “Calculating synergistic and antagonistic responses of herbicide combinations”, Weeds 15, p. 22ff., the value E, which is expected if the activity of the individual active compounds is only additive, was calculated. E=X+Y−(X·Y/100) where X=effect in percent using herbicide A at an application rate a; • Y=effect in percent using herbicide B at application rate b; • E=expected effect (in %) of herbicide A+herbicide B at application rates a+b.

The subject of the next test is Stellaria media. Kind of test: greenhouse pre-emergence treatment, STEME. As to conditions: 20 DAT. Put shortly:
as §1

The test system of the next test is Echinocloa crus-galli. The test is described as follows: greenhouse pre-emergence treatment, ECHCG. As to conditions: 20 DAT.
Source text: as §2
For the pre-emergence treatment, the active compounds, suspended or emulsified in water, were applied directly after sowing by means of finely distributing nozzles. The containers were irrigated gently to promote germination and growth and subsequently covered with transparent plastic hoods until the plants had rooted. This cover caused uniform germination of the test plants unless this was adversely affected by the active compounds.
as §3, §4, §5, §6, §7

The subject of another test is Brachiaria decumbens. Kind of test: greenhouse pre-emergence treatment, BRADC. As to conditions: Urochloa decumbens, 480 h, BRADC, 20 DAT. Put shortly:
as §1

Another test deals with Poa annua. Kind of test: greenhouse pre-emergence treatment, POAAN. As to conditions: 20 DAT. Put shortly:
as §1

Another test has as its system Apera spica-venti. The test is described as follows: greenhouse post-emergence treatment, APESV. As to conditions: APESV, 20 DAT. Put shortly: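 Ratings of 0 to 100 reflect above-ground destruction versus normal growth after 2 to 4 weeks. Actives were sprayed post-emergence as water-diluted 10% emulsion concentrates onto plants 3–15 cm high.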
A further test deals with Lolium multiflorum. Kind of test: greenhouse pre-emergence treatment, LOLMU. As to conditions: Lolium multiflorum, 480 h, LOLMU, 20 DAT. Put shortly: as §1

By plant injury is commonly meant how far the test organism was held down. By pest or weed control is commonly meant how far the test organism was held down.

Each structure is given as a SMILES string. Where two headings read alike, the source gives them in different places.

Regarding `Cc1ccccc1CO[C@@H]1C[C@@]2(C(C)C)CC[C@]1(C)O2` (racemic) [cinmethylin], in the test with Helianthus annuus (125 gai/ha (EC 750 g/l), Table X1, read-out: % activity, solo application), the inhibition at 125 g/ha came out at 10%. Moreover, the inhibition at 62.5 g/ha in the test with Bromus sterilis (62.5 gai/ha (EC 750 g/l), Table X1, read-out: % activity, solo application) was determined as 55%. For the same molecule, the inhibition at 250 g/ha in the test with Bromus sterilis (250 gai/ha (EC 750 g/l), Table X1, read-out: % activity, solo application) was found to be 75%.
Consider `CC(C)N(C(=O)COc1nnc(C(F)(F)F)s1)c1ccc(F)cc1` [flufenacet], for which the inhibition at 62.5 g/ha is 0% in the test with Polygonum aviculare (flufenacet solo 62.5 gai/ha, read-out: % activity) and 0% in the test with Stellaria media (Stellaria media, 480 h, flufenacet SC 500 g/l solo 62.5 gai/ha). For the same molecule, the inhibition at 125 g/ha in the test on Polygonum aviculare (flufenacet solo 125 gai/ha, read-out: % activity) is 0%; in the test with Stellaria media (Stellaria media, 480 h, flufenacet SC 500 g/l solo 125 gai/ha) it was 0%. In addition, the inhibition at 250 g/ha with Polygonum aviculare (flufenacet solo 250 gai/ha) was 0%. The inhibition at 500000 µg/mL (stock) in the test on Polygonum aviculare (POLAV, solo flufenacet (SC 500 g/l) 250 gai/ha) was determined as 0%. The inhibition at 15.6 g/ha with Stellaria media (Stellaria media, 480 h, flufenacet SC 500 g/l solo 15.6 gai/ha) came to 0%. In the test on Stellaria media (Stellaria media, 480 h, flufenacet SC 500 g/l solo 31.25 gai/ha), the inhibition at 31.25 g/ha was found to be 0%.
On to `Cc1ccc(NC(=O)N(C)C)cc1Cl` [chlorotoluron], for which the plant injury at 500 g/ha in the test on Helianthus annuus (chlorotoluron solo 500 gai/ha) was determined as 10%. Moreover, the “% activity” value with Echinocloa crus-galli (chlorotoluron solo 62.5 gai/ha) amounted to 0%; in the test on Echinocloa crus-galli (chlorotoluron solo 125 gai/ha), 0%; in the test on Echinocloa crus-galli (chlorotoluron solo 250 gai/ha) it was 35%; with Echinocloa crus-galli (chlorotoluron solo 500 gai/ha), 25%; in the test on Poa annua (chlorotoluron solo 125 gai/ha), 0%; in the test on Poa annua (chlorotoluron solo 250 gai/ha) it was 20%. The “% activity” value stood at 25% in the test on Apera spica-venti (chlorotoluron solo 62.5 gai/ha), 55% in the test with Apera spica-venti (chlorotoluron solo 125 gai/ha) and 65% in the test on Stellaria media (chlorotoluron solo 250 gai/ha). For the same molecule, the values for the pest or weed control at 500 g/ha in the test with Brachiaria decumbens (chlorotoluron solo 500 gai/ha), in the test with Bromus sterilis (chlorotoluron solo 500 gai/ha) and with Lolium multiflorum (chlorotoluron solo 500 gai/ha) were 0%, 0% and 10%, respectively. Besides, in the test with Bromus sterilis (chlorotoluron solo 62.5 gai/ha), the pest or weed control at 62.5 g/ha came out at 0%. Moreover, the pest or weed control at 250 g/ha with Bromus sterilis (chlorotoluron solo 250 gai/ha) and in the test with Lolium multiflorum (chlorotoluron solo 250 gai/ha) was 0% throughout.
With `CSc1nnc(C(C)(C)C)c(=O)n1N` [metribuzin], the inhibition at 62.5 g/ha was found to be 0% with Helianthus annuus (metribuzin WG 70% solo 62.5 gai/ha); 30% in the test with Echinocloa crus-galli (Echinochloa crus-galli, 480 h, metribuzin WG 70% solo 62.5 gai/ha); 10% in the test on Bromus sterilis (metribuzin WG 70% solo 62.5 gai/ha, read-out: % activity). The inhibition at 125 g/ha in the test on Helianthus annuus (metribuzin WG 70% solo 125 gai/ha, read-out: % activity) came to 0%. Moreover, the inhibition at 250 g/ha in the test with Helianthus annuus (metribuzin WG 70% solo 250 gai/ha) was found to be 50%; in the test with Bromus sterilis (metribuzin WG 70% solo 250 gai/ha, read-out: % activity) it was 60%. Besides, the plant injury at 31.25 g/ha in the test on Helianthus annuus (solo, WG 70%, 31.25 gai/ha) amounted to 0%. In addition, in the test on Helianthus annuus (solo, WG 70%, 62.5 gai/ha), the plant injury at 62.5 g/ha amounted to 0%. Further, the plant injury at 250 g/ha with Helianthus annuus (solo, WG 70%, 250 gai/ha) came to 50%. For the same molecule, the “% activity” value with Echinocloa crus-galli (solo, WG 70%, 31.25 gai/ha) is reported as 0%; with Echinocloa crus-galli (solo, WG 70%, 62.5 gai/ha), 30%; in the test with Apera spica-venti (solo, WG 70%, 17.5 gai/ha), 10%; with Apera spica-venti (solo, WG 70%, 35 gai/ha), 55%; in the test with Apera spica-venti (solo, WG 70%, 70 gai/ha), 90%. The pest or weed control at 62.5 g/ha with Brachiaria decumbens (solo, WG 70%, 62.5 gai/ha) is 0%; in the test with Bromus sterilis (solo, WG 70%, 62.5 gai/ha), 10%. Further, the inhibition at 17.5 g/ha in the test with Apera spica-venti (Apera spica-venti, 480 h, metribuzin WG 70% solo 17.5 gai/ha) worked out at 10%. Moreover, the inhibition at 35 g/ha in the test on Apera spica-venti (Apera spica-venti, 480 h, metribuzin WG 70% solo 35 gai/ha) stood at 55%. For the same molecule, the inhibition at 31.25 g/ha in the test with Bromus sterilis (metribuzin WG 70% solo 31.25 gai/ha) was found to be 0%.
As for `CCCCCCCCSC(=O)Oc1cc(Cl)nnc1-c1ccccc1` [pyridate], the inhibition at 112.5 g/ha is 0% in the test on Polygonum aviculare (pyridate solo 112.5 gai/ha, POLAV) and 0% in the test on Apera spica-venti (Apera spica-venti, 480 h, pyridate solo 112.5 gai/ha). The inhibition at 225 g/ha was 20% with Polygonum aviculare (pyridate solo 225 gai/ha, POLAV) and 0% in the test with Apera spica-venti (Apera spica-venti, 480 h, pyridate solo 225 gai/ha). Also, the inhibition at 450 g/ha came out at 20% in the test with Polygonum aviculare (pyridate solo 450 gai/ha, POLAV) and 0% with Apera spica-venti (Apera spica-venti, 480 h, pyridate solo 450 gai/ha). Moreover, the inhibition at 900 g/ha was 30% in the test on Polygonum aviculare (pyridate solo 900 gai/ha, POLAV) and 30% in the test with Apera spica-venti (Apera spica-venti, 480 h, pyridate solo 900 gai/ha). The “% activity” value with Apera spica-venti (solo pyridate (WP 45%) 450 gai/ha) came to 0%.

Source of the values: patent publication US10966426B2, “Herbicidal compositions comprising phenylpyrimidines” (BASF SE, priority 2016, dated 2021).
